The source of these data is US4562206A, “Orally effective inotropic compounds” (Key Pharmaceuticals, Inc., priority 1984, dated 1985).

“Also recorded” adds a separate entry of the source. Counter-ions that a name gives are not always drawn.

The subject of data set [1] is cardiac contractility. Put plainly: Cardiac contractility (inotropic effect), intravenous infusion, anesthetized open-chest dogs, strain gauge arch on right ventricle. It counts as in vivo. Particulars: for Inotropic Potency Relative to Dobutamine, Mean ± S.E.: i.v. infusion, based on CC50 (rate that increases contractility by 50%). How it is done:
(§1) The data in FIGS. 1 and 2 and Table 2 were obtained on dogs anesthetized with sodium pentobarbital (30 mg/kg, i.v.). The animals were placed on artificial respiration and the chest was opened to expose the heart. A Walton-Brodie strain gauge arch was sutured to the right ventricle for measurement of cardiac contractility. Arterial blood pressure was measured from a catheter placed in the abdominal aorta. Cardiac contractility and arterial pressure were recorded continuously on a Grass polygraph. All drugs were dissolved and infused intravenously in 0.9% NaCl solution.

The test system of the next data set is diastolic blood pressure. Put plainly: Arterial blood pressure change, intravenous infusion, anesthetized open-chest dogs. The note with it: for Blood Pressure, Mean ± S.E. (change in diastolic blood pressure): dose 4 times larger than CC50, i.v.; for effect on blood pressure: i.v. It counts as in vivo.
Text: To illustrate the structural specificity of the compounds of the invention, four close structural analogs of Compound I were synthesized and their activity compared to that of Compound I. In these tests dobutamine was used as a standard so that Compound I and the four structural analogs could be compared on a common basis. FIGS. 1 and 2 graphically compares dobutamine, Compound I and Compound V (the closest structural analog of dobutamine and Compound I).
as §1
Blood Pressure = change in diastolic blood pressure caused by a dose 4
times larger than CC50 -

A short description of data set [2]: Blood (plasma) levels during intravenous infusion in anesthetized dog, HPLC with electrochemical detection. The note with it: i.v. infusion 20 ug/kg/min; for concentration at 10 min / concentration at 20 min / concentration at 0.5 h: plasma, iv; for concentration at 10 min: infusion time 10 mins; for concentration at 20 min: infusion time 20 mins; for concentration at 0.5 h: infusion time 30 mins. The data set is classed as in vivo. How it is done: The data in Table 1 were obtained from a dog anesthetized with sodium pentobarbital (30 mg/kg, i.v.). The right femoral vein was cannulated for administration of drug and the left femoral vein was used for withdrawal of blood samples. All blood samples were collected in heparinized chilled tubes. The blood was centrifuged to separate red cells and the plasma was frozen.
After obtaining a control blood sample, dobutamine infusion at the rate of 20 ug/kg/min was maintained for 30 mins. During the infusion, blood samples were drawn at 10, 20, and 30 mins. One hour after completion of the dobutamine infusion, a second control sample of blood was drawn and an infusion of Compound I at 20 ug/kg/min was begun. Samples of blood were taken during the Compound I infusion at 10, 20, and 30 mins.
The concentrations of Compound I and dobutamine in plasma were measured using HPLC with electrochemical detection. Chromatography was performed using a reverse-phase octadecylsilane (C18) column attached to an amperometric detector equipped with a glassy carbon electrode at a potential of +600 mV. The mobile phase consisted of acetonitrile:pH 3 buffer (15:85); the buffer (pH 3) contained 0.035M KH2 PO4, 0.003M citric acid and 0.002M Na2 EDTA. At a flow rate of 1.5 ml/min, Compound I, dobutamine and the internal standard for the assay (dioxymethylene derivative of dobutamine) eluted in […] respectively.
In the assay procedure, control plasma (1 mil) spiked with 0, 20, 100, 300 and 500 ng/ml test drug was added to silanized glass tubes (13×128 mm) containing 100 ng of the internal standard as a solution in 100 ul of 5M K2 HPO4. The samples were mixed and extracted twice with 4 ml of ethyl acetate. Following centrifugation, the combined organic extracts were evaporated, the residue dissolved in […] of mobile phase and a 10-15 ul aliquot injected into the chromatograph. Calibration curves were constructed by plotting the peak height ratios of test drug to the internal standard over the concentration range and interpolation of unknown plasma concentrations from the fitted line.

The subject of data set [3] is cardiac contractility. Put plainly: Inotropic response (LV dP/dt) when swallowed, conscious instrumented dogs. It counts as in vivo. Particulars: 5 mg/kg oral capsule. How it is done: To test the effectiveness of Compound I when swallowed, five previously trained dogs, instrumented with a miniature pressure transducer for measurement of cardiac contractility were used. On different days the conscious dogs were tested with placebo, dobutamine (5 mg/kg) or Compound I (5 mg/kg).
Several months prior to doing the procedure described above, a minature pressure transducer was mounted in the left ventricle of each dog's heart. The dogs were trained to swallow capsules and lie quietly for up to 3 hours. During this time, continuous recording of left ventricular pressure was made on a Grass polygraph. Also recorded was an electronically differentiated signal on the left ventricular pressure. This differential is referred to as LV dP/dt. This LV dP/dt is the rate that the left ventricle develops pressure and is accepted as an index of cardiac contractility.
On each day of testing the dogs were forced to swallow a gelatin capsule that was either empty (placebo), or contained dobutamine (5 mg/kg) or Compound I (5 mg/kg). Recordings were then made of cardiac contractility for 2 hours after the dog swallowed the capsule.

The next data set has as its system left ventricular dP/dt. Put plainly: Inotropic response (left ventricular dP/dt) after buccal administration, anesthetized dogs. The data set is classed as in vivo. From the text:
The dogs were anesthetized with sodium pentobarbital as described above and a Millar® transducer-tip catheter positioned in the left ventircle after introduction through the left carotid artery. Left ventricular pressure was obtained from this catheter and electronically differentiated to obtain dP/dt.
The dogs were placed on their backs, and their heads and noses positioned so that their hard palates were level. After an appropriate period to collect control dP/dt values, the test drug was applied to the hard palate. The test drugs were made up in a solution of 50% ethanol in distilled water adjusting concentrations so that the desired dose was contained in 2.5 ml of solution. The drug solution was applied to a 100 mm^2 area of the hard palate contained by fitting parafilm over the drug solution lying on the palate.

For data set [4] the following is noted: background; cited from earlier work.
In data set [5] the test system is cardiac beta1 adrenergic receptors. Particulars: background, Tuttle and Mills, Circ. Res. 36: 185, 1975; cited from earlier work.
The subject of data set [6] is cardiac contractility. Put plainly: Intravenous infusion rates required to increase cardiac contractility by 50%, anesthetized dogs. The data set is classed as in vivo.
Data set [7] can be described thus: Buccal absorption of ester relative to parent (buccal versus intravenous potency comparison). It counts as in vivo, dogs. The note with it: buccal versus i.v. potency, Compound I-A vs Compound I. From the text: Yet by the buccal route of administration, the ester was more than twice as potent as its parent. Therefore, the ester derivative was better absorbed through the buccal mucosa by a factor of more than eighteen times than was the parent compound.

Regarding `NC(=O)c1cccc(CCNCCc2ccc(O)c(O)c2)c1` [Compound II], the “inotropic potency” value with cardiac contractility [1] (i.v.) is on record as “not significantly better than that of dobutamine”. Further, the “Inotropic Potency Relative to Dobutamine, Mean ± S.E.” value with cardiac contractility [1] is listed as 1.5 ± 0.1. In the data set on diastolic blood pressure, the “Blood Pressure, Mean ± S.E. (change in diastolic blood pressure)” value is on record as -8 ± 5 and the “effect on blood pressure” value is listed as “no rise in blood pressure”.
In data set [2], `CC(CCc1ccc(O)cc1)NCCc1ccc(O)c(O)c1` (stereo not shown) [Dobutamine, reference compound] returned a concentration at 10 min of 155 ng/mL, a concentration at 20 min of 176 ng/mL and a concentration at 0.5 h of 158 ng/mL. Besides, the “Blood Pressure, Mean ± S.E. (change in diastolic blood pressure)” value in the data set with diastolic blood pressure is on record as 7.8 ± 4.5. For the same compound, the “inotropic response when swallowed” value in the data set with cardiac contractility [3] is given as “did not produce a response significantly better than the placebo”. Also, the “Inotropic Response, Percent Change from Control, Mean ± S.E. (peak change in left ventricular dP/dt)” value (shortened to “Inotropic Response, Percent Change”) in the data set on left ventricular dP/dt (5 mg/kg) was 2.7 ± 2%. In addition, the “clearance from the blood” value in data set [4] is “rapidly cleared from the blood”. Also, in [5], the “cardioselectivity” value was “cardioselective in its actions”.
As to `CC(CCc1cccc(C(N)=O)c1)NCCc1ccc(OC(=O)C(C)(C)C)c(OC(=O)C(C)(C)C)c1` (stereo not shown) [Compound I-B], the “Inotropic Response, Percent Change” value with left ventricular dP/dt (1.39 mg/kg) is 13 ± 7%. Further, the “inotropic response, buccal” value with left ventricular dP/dt (anesthetized dogs) was “small response”.
Turning to `CC(CCc1cccc(C(N)=O)c1)NCCc1ccc(OC(=O)C(C)C)c(OC(=O)C(C)C)c1` (stereo not shown) [Compound I-A, N[2-(3,4-diisobutyryloxyphenyl)ethyl]-1-methyl-3-(3-carbamoylphenyl)propylamine hydrochloride], the “Inotropic Response, Percent Change” value in the data set with left ventricular dP/dt (1.39 mg/kg) is reported as 61 ± 3%. Also, the “inotropic response, buccal” value in the data set on left ventricular dP/dt (anesthetized dogs) is listed as “the most effective by this route”. Further, the “buccal potency relative to Compound I” value in the data set on left ventricular dP/dt (molar basis, anesthetized dogs) is “more than twice”. In addition, in the data set with cardiac contractility [6] (Dog #1, i.v.), the “Dose Ratio (Compound I-A to Compound I)” value is on record as 9.6 and the “Intravenous infusion rate required to increase cardiac contractility by 50%” value amounted to 2.8 µg/kg/min. Also, in the data set with cardiac contractility [6] (Dog #2, i.v.), the “Dose Ratio (Compound I-A to Compound I)” value was determined as 12.9 and the “Intravenous infusion rate required to increase cardiac contractility by 50%” value amounted to 1.25 µg/kg/min. The “times less potent than parent catechol (Compound I)” value in the data set with cardiac contractility [6] (intravenous infusion) is listed as “more than nine”. Moreover, in data set [7], the “factor of better absorption through the buccal mucosa than parent compound” value is listed as “more than eighteen”.
In the case of `NC(=O)c1cccc(CCCNCCc2ccc(O)c(O)c2)c1` [Compound III], the “inotropic potency” value with cardiac contractility [1] (i.v.) was “potency was reduced”. The “Inotropic Potency Relative to Dobutamine, Mean ± S.E.” value with cardiac contractility [1] stood at 1.4 ± 1. In the data set on diastolic blood pressure, the “Blood Pressure, Mean ± S.E. (change in diastolic blood pressure)” value came out at 22.3 ± 16.2 and the “effect on blood pressure” value was “undesired elevation in blood pressure”.
As for `CC(CCc1ccc(C(N)=O)cc1)NCCc1ccc(OC(=O)C(C)C)c(OC(=O)C(C)C)c1` (stereo not shown) [Compound V-A], in the data set on left ventricular dP/dt (1.39 mg/kg), the “Inotropic Response, Percent Change” value was “No response”. The “inotropic response, buccal” value in the data set on left ventricular dP/dt (anesthetized dogs) is reported as “no response”.
For `NC(=O)c1ccc(CCNCCc2ccc(O)c(O)c2)cc1` [Compound IV], the “Inotropic Potency Relative to Dobutamine, Mean ± S.E.” value in the data set on cardiac contractility [1] came out at 1.38 ± 0.2. Further, in the data set with diastolic blood pressure, the “Blood Pressure, Mean ± S.E. (change in diastolic blood pressure)” value is 26 ± 10 and the “effect on blood pressure” value is reported as “the blood pressure side effect reappears”.
For the compound `CC(CCc1ccc(C(N)=O)cc1)NCCc1ccc(O)c(O)c1` (stereo not shown) [Compound V], the “cardiac potency relative to that with carbamyl group in meta position (Compound I)” value in the data set on cardiac contractility [1] (i.v.) is recorded as “less than a third”. For the same compound, in the data set with cardiac contractility [1], the “Inotropic Potency Relative to Dobutamine, Mean ± S.E.” value came out at 2.9 ± 0.3. The “effect on blood pressure” value in the data set on diastolic blood pressure is “dangerous rise in blood pressure”.
`CC(CCc1cccc(C(N)=O)c1)NCCc1ccc(O)c(O)c1` (stereo not shown) [Compound I, N-[2-(3,4-dihydroxyphenyl)ethyl]-1-methyl-3-(3-carbamoylphenyl)propylaminehydrochloride]: in data set [2], the “Blood levels compared with dobutamine” value is listed as “higher blood levels than dobutamine”, the concentration at 10 min worked out at 417 ng/mL, the concentration at 20 min turned out to be 451 ng/mL and the concentration at 0.5 h is 874 ng/mL. Also, in the data set on cardiac contractility [1] (i.v.), the “dose relative to that of dobutamine required for equivalent inotropic effect” value was “about a tenth” and the “times more potent than dobutamine” value is recorded as “about ten”. Also, the “Inotropic Potency Relative to Dobutamine, Mean ± S.E.” value in the data set with cardiac contractility [1] amounted to 9.1 ± 2.4. In the data set on diastolic blood pressure, the “Blood Pressure, Mean ± S.E. (change in diastolic blood pressure)” value is reported as 5.3 ± 4.5 and the “effect on blood pressure” value is on record as “no significant change in blood pressure; also recorded: no greater than that of dobutamine”. In addition, in the data set with cardiac contractility [3], the “inotropic response when swallowed” value is given as “strong inotropic response; also recorded: effective when swallowed” and the “persistence of inotropic response when swallowed” value is given as “more than two”. Besides, the “Inotropic Response, Percent Change” value with left ventricular dP/dt (2 mg/kg) was found to be 16.6 ± 6%. For the same compound, in the data set on cardiac contractility [6] (Dog #1, i.v.), the “Intravenous infusion rate required to increase cardiac contractility by 50%” value came out at 0.29 µg/kg/min. The “Intravenous infusion rate required to increase cardiac contractility by 50%” value in the data set with cardiac contractility [6] (Dog #2, i.v.) turned out to be 0.097 µg/kg/min.
